Source: patent publication US20070004634A1 (Novo Nordisk A/S, priority 1998, published 2007)
Residues, ends and D or L forms follow the SMILES beside them.

Assays:
[1] = system: FDC-P2 cells expressing the IL-3 and human IGF-1R receptors; experiment: IGF-1 proliferation assay in FDC-P2 cells, agonist format; conditions: for agonist activity at IGF-1R, in words / EC50: FDC-P2 cells
[2] = system: FDC-P2 cells expressing the IL-3 and human IGF-1R receptors; experiment: IGF-1 proliferation assay in FDC-P2 cells, antagonist format; conditions: for antagonist activity at IGF-1R, in words / EC50: FDC-P2 cells; for FDC-P2 Antagonist: FDC-P2 cell proliferation, antagonist effect; for EC50: read-out: ED50, antagonist activity at IGF-1R, 10 ng/ml IGF-1 test medium
IGF-1R [3] = molecular target: T1, IGF-1R (Homo sapiens, UniProt P08069); experiment: Phage competition ELISA on IGF-1R; assay type: binding; set-up: included the heterotetrameric (alpha 2-beta 2) extracellular domain of IGF-1R; purchased R&D Systems 391-GR/CF; host or cells: mouse myeloma cell line; conditions: phage RP9, RP6, D8B12, D815
Description: Wells were blocked with 4% non-fat milk in PBS for 60 min at room temperature. One hundred microliters of rescued phage were added to each well. […] The labeled antibody was incubated at room temperature for 60 min. After washing, 100 μl of ABTS was added per well and the plates read in a microtiter reader at […]. […] (Site 2). Peptides included RP9 and […]. Phage competition studies were also performed with Site 2-Site 1 dimer peptides containing 6- or 12-amino acid linkers. […] Wells were blocked with 4% non-fat milk in PBS for 60 min at room temperature. One hundred microliters of rescued phage were added to each well. Peptides in varying concentrations were added and the mixture incubated for 2 h at room temperature. […] The labeled antibody was incubated for 60 min at room temperature. After washing, 100 μl of ABTS was added per well and the plates read in a microtiter reader at […]. […] Linker sequences are underlined and shown below.

[4] = molecular target: T2, human insulin receptor (HIR) (Homo sapiens, UniProt P06213); experiment: Insulin receptor binding, competition with 125I-labeled insulin (HIR Kd); conditions: read-out: IC50 (nM), HIR, 125I-insulin, RRA; target HIR; label 125I-insulin; radio-receptor assay
T2 construct: made in house

[5] = molecular target: T3, soluble human insulin receptor-immunoglobulin heavy chain chimera (sIR-Fc) (Homo sapiens, UniProt P06213); experiment: TR-FRET competition with biotinylated RP9 (b-RP9) for sIR-Fc; assay type: binding; conditions: for Hill, sIR-Fc, b-RP9, FRET: Hill slope, target sIR-Fc, label b-RP9, TR-FRET
T3 construct: replacing the transmembrane domain and the intracellular domain of IR with constant domains from immunoglobulin Fc or λ subunits; made in house; host or cells: human embryonic kidney 293 cells (Bass et al.)

[6] = molecular target: T3, soluble human insulin receptor-immunoglobulin heavy chain chimera (sIR-Fc); experiment: TR-FRET competition with biotinylated S175 (b-S175) for sIR-Fc; assay type: binding; conditions: target sIR-Fc, label b-S175; for Hill, sIR-Fc, b-S175, FRET: Hill slope
[7] = system: soluble human insulin mini-receptor (mIR); experiment: Fluorescence polarization, competition with FITC-RP9 for mIR; assay type: binding
Description: The FP assays were performed in a 384-well black microplate with a final volume of 30 μl.

[8] = molecular target: T3, soluble human insulin receptor-immunoglobulin heavy chain chimera (sIR-Fc); experiment: Fluorescence polarization, competition with FITC-RP9 for sIR-Fc; assay type: binding; conditions: for Hill, sIR-Fc, FITC-RP9, FP: Hill slope
IGF-1R [9] = molecular target: T1, IGF-1R; experiment: TR-FRET competition with biotinylated-20E2 for rhIGF-1R; conditions: TR-FRET (rhIGF-1R, b-20E2) versus FP (sIR-Fc), summary of Table 22
[10] = system: free fat cells (adipocytes); experiment: Adipocyte / free fat cell (FFC) assay, 3H glucose incorporation into lipid
[11] = molecular target: T4, soluble HIR ectodomain (sIR) (Homo sapiens, UniProt P06213); experiment: Fluorescence polarization, competition with FITC-RP9 for sIR; assay type: binding; conditions: Hill slope, target sIR, label FITC-RP9
T4 construct: soluble HIR ectodomain (sIR); Kristensen et al., 1998

IGF-1R [12] = molecular target: T1, IGF-1R; experiment: TR-FRET dissociation of biotinylated-20E2 from rhIGF-1R; assay type: binding; conditions: peptides 100 μM, IGF-1 30 μM
Description: Best fit non-linear regression analysis of the data, was used to determine dissociation rate constants. Each data point represents a single observation. […] Reactions were allowed to reach equilibrium for 6 h at RT.

MiaPaCa cells [13] = experiment: MiaPaCa cell proliferation assay, IGF-1R agonist format; assay type: cell-based, human; conditions: MiaPaCa cell proliferation, agonist effect
MCF-7 cells [14] = conditions: MCF-7 cell proliferation, antagonist effect
MiaPaCa cells [15] = conditions: MiaPaCa cell proliferation, antagonist effect
MCF-7 cells [16] = experiment: MCF-7 cell proliferation assay, IGF-1R agonist format; assay type: cell-based, human; conditions: MCF-7 cell proliferation, agonist effect
Excerpt: ; FIGS. 65A-65F), and were used for subsequent experiments.

Insulin receptor = molecular target: T5, Insulin receptor (Homo sapiens, UniProt P06213); experiment: BIAcore competition, IR binding to immobilized insulin; conditions: Table 13; peptide about 40 μM, IR 450 nM; IR alone 100
T5 construct: replacing the transmembrane domain and the intracellular domain of IR with constant domains from immunoglobulin Fc or λ subunits; made in house; host or cells: human embryonic kidney 293 cells (Bass et al.)
Description: Flowcell-1 was used for background binding to correct for any non-specific binding. […] The surface was regenerated with 25 mM NaOH.

[17] = target sIR-Fc, label FITC-RP9, fluorescence polarization
[18] = free fat cell assay class, Table 9
[19] = FFC assay potency grade, 0, + to ++++++, −

T1 sequence (P08069 31-736 limits assumed): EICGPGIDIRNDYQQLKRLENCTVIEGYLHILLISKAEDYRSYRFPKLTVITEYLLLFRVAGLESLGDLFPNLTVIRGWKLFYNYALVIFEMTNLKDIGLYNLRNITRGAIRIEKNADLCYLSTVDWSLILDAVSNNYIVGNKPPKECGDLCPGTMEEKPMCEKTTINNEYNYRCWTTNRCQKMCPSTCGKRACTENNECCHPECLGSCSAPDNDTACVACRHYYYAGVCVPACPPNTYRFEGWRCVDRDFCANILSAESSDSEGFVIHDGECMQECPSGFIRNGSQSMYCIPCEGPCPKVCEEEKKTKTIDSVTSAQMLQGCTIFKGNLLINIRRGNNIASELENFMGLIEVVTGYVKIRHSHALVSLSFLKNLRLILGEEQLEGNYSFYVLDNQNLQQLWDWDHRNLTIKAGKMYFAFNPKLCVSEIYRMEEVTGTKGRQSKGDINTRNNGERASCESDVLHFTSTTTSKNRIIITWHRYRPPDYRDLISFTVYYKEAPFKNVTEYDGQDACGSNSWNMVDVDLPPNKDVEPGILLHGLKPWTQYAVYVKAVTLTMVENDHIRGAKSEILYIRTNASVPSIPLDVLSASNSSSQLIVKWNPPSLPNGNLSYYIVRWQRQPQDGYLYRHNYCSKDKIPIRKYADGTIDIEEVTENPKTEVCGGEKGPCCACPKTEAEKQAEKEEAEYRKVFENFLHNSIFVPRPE
T1 sequence (P08069 741-935 limits assumed): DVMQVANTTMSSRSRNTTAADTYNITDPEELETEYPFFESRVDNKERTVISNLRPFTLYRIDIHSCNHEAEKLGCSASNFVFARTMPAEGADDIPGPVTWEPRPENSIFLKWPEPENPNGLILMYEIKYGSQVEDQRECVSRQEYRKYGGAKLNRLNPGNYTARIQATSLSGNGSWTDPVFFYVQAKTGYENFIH
T4 sequence (P06213 28-758 limits assumed): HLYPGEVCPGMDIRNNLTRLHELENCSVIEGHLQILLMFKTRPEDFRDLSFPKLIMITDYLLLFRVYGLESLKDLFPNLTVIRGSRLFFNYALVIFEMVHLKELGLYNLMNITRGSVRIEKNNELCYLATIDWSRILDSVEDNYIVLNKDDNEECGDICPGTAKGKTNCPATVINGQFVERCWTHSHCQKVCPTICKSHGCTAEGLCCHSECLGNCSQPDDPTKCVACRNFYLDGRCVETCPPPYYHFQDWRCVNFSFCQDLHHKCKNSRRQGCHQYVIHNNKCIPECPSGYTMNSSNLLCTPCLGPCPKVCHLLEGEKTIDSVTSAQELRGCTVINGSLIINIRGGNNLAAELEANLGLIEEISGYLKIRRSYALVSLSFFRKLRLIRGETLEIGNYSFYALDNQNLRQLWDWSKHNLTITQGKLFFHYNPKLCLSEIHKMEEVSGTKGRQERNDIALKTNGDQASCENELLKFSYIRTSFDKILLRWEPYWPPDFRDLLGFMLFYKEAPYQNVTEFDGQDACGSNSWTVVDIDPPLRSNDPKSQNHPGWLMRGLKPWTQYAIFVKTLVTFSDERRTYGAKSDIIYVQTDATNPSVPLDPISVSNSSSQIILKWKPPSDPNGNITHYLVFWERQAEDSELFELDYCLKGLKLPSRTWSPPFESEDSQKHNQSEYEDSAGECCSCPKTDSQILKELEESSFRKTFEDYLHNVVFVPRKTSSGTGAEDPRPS
T4 sequence (P06213 763-956 limits assumed): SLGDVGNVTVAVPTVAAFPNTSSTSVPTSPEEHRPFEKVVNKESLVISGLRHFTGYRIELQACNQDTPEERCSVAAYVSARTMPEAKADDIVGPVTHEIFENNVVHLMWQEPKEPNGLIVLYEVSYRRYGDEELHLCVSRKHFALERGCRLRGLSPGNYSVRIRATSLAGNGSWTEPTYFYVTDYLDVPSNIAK
T3 sequence (P06213 28-758 limits assumed, stated change not applied): as the sequence (P06213 28-758 limits assumed) above
T3 sequence (P06213 763-956 limits assumed, stated change not applied): as the sequence (P06213 763-956 limits assumed) above
T2 sequence (P06213 28-758 limits assumed): as the sequence (P06213 28-758 limits assumed) above
T2 sequence (P06213 763-1382 limits assumed): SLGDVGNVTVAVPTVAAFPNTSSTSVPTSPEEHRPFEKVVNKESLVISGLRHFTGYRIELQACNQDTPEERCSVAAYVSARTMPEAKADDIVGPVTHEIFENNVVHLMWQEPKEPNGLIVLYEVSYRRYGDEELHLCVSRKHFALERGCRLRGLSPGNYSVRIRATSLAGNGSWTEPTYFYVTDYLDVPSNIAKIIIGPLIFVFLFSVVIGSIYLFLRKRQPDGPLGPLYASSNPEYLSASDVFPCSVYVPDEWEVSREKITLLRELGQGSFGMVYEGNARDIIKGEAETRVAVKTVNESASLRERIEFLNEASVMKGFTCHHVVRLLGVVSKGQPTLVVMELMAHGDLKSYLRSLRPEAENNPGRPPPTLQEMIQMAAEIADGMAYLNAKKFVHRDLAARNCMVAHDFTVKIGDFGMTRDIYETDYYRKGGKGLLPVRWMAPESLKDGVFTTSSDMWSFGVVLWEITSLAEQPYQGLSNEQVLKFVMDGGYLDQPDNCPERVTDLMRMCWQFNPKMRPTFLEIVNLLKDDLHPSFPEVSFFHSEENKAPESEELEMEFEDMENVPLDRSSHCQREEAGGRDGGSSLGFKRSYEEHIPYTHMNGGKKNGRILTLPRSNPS
T5 sequence (P06213 28-758 limits assumed): as the sequence (P06213 28-758 limits assumed) above
T5 sequence (P06213 763-956 limits assumed): as the sequence (P06213 763-956 limits assumed) above

CC[C@H](C)[C@@H]1NC(=O)[C@H](CCC(=O)O)NC(=O)[C@@H](NC(=O)[C@H](Cc2c[nH]c3ccccc23)NC(=O)[C@H](CC(C)C)NC(=O)[C@H](Cc2c[nH]c3ccccc23)NC(=O)[C@H](C)NC(=O)[C@H](CCCNC(=N)N)NC(=O)[C@H](CCC(=O)O)NC(=O)[C@H](CCC(N)=O)NC(=O)[C@H](CC(=O)O)NC(=O)[C@H](CC(C)C)NC(=O)[C@@H](N)Cc2c[nH]c3ccccc23)CSSC[C@@H](C(=O)N[C@@H](CC(C)C)C(=O)N[C@@H](CO)C(=O)O)NC(=O)CNC(=O)[C@H](CCCNC(=N)N)NC(=O)CNC(=O)[C@H](CO)NC1=O [Peptide D815]
FDC-P2 Agonist ([1]; FDC-P2 cell proliferation, agonist effect): + | agonist activity at IGF-1R, in words [1]: IGF-1R agonist activity | EC50 ([1]; read-out: ED50, agonist activity at IGF-1R): ~2 µM | antagonist activity at IGF-1R, in words [2]: no antagonist activity | competition of Site 1 and Site 2 phage on IGF-1R (IGF-1R [3]): competed both Site 1 and Site 2 phage

CC(C)C[C@H](NC(=O)[C@H](Cc1c[nH]c2ccccc12)NC(=O)[C@H](CCC(=O)O)NC(=O)[C@H](Cc1ccc(O)cc1)NC(=O)CNC(=O)[C@@H]1CCCN1C(=O)[C@H](Cc1c[nH]c2ccccc12)NC(=O)[C@@H](NC(=O)[C@@H](NC(=O)CNC(=O)CN)[C@@H](C)O)C(C)C)C(=O)N[C@@H](CCCNC(=N)N)C(=O)N[C@@H](CC(N)=O)C(=O)N[C@@H](C)C(=O)O [Peptide E8]
IC50 [4]: 2200 nM | competition with FITC-RP9 or b-RP9 peptides for binding to sIR-Fc [5]: able to compete | Hill, sIR-Fc, b-S175, FRET [6]: −0.74 | IC50 [6]: 755 nM | competition with peptide ligands such as FITC-RP9 for binding to mIR [7]: did not compete | IC50 ([7]; target mIR, label FITC-RP9, fluorescence polarization, read-out: IC50 (nM), mIR, FITC-RP9, FP): > 100000 nM | Hill, sIR-Fc, FITC-RP9, FP [8, 17]: −0.49 | IC50 ([8]; target sIR-Fc, label FITC-RP9, fluorescence polarization, read-out: IC50 (nM), sIR-Fc, FITC-RP9, FP): 207 nM | IC50 ([8]; vs. FITC-RP9, read-out: FP sIR-Fc IC50): 206 nM | binding to IGF-1R compared with IR, in words (IGF-1R [9]): comparable binding to IGF-1R and IR | FFC [10, 18]: −

CC(C)C[C@H](NC(=O)[C@H](CCC(=O)O)NC(=O)[C@H](C)NC(=O)[C@@H](NC(=O)[C@H](Cc1ccccc1)NC(=O)[C@H](Cc1c[nH]c2ccccc12)NC(=O)[C@H](CC(=O)O)NC(=O)[C@H](Cc1ccc(O)cc1)NC(=O)[C@H](Cc1ccccc1)NC(=O)[C@H](CC(N)=O)NC(=O)[C@H](C)NC(=O)[C@H](CC(N)=O)NC(=O)[C@H](CCCNC(=N)N)NC(=O)[C@H](CCC(N)=O)NC(=O)[C@H](CC(C)C)NC(=O)[C@H](Cc1c[nH]c2ccccc12)NC(=O)[C@H](CC(=O)O)NC(=O)[C@@H](NC(=O)[C@H](CCCNC(=N)N)NC(=O)CN)C(C)C)C(C)C)C(=O)NCC(=O)O [Peptide S175]
Hill, sIR-Fc, b-RP9, FRET [5]: −0.74 | Hill, sIR-Fc, b-S175, FRET [6]: −0.58 | Hill, sIR, FITC-RP9, FP [11]: −0.36 | Hill, sIR-Fc, FITC-RP9, FP [8, 17]: −0.56 | binding to IGF-1R compared with IR, in words (IGF-1R [9]): high binding ratios for IGF-1R over IR | agonist activity at IGF-1R, in words [1]: IGF-1R agonist activity | EC50 ([1]; read-out: Cellular EC50, stimulation of proliferation): 10 µM | FFC [10, 19]: +++

CC(C)C[C@H](NC(=O)[C@H](CCC(N)=O)NC(=O)[C@H](CCCNC(=N)N)NC(=O)[C@H](CCC(=O)O)NC(=O)[C@H](Cc1ccccc1)NC(=O)[C@H](Cc1c[nH]c2ccccc12)NC(=O)[C@H](CC(=O)O)NC(=O)[C@H](Cc1ccc(O)cc1)NC(=O)[C@H](Cc1ccccc1)NC(=O)[C@H](CO)NC(=O)[C@@H](N)CCC(=O)O)C(=O)NCC(=O)O [Peptide S390]
Hill, sIR-Fc, b-RP9, FRET [5]: −0.49 | Hill, sIR-Fc, b-S175, FRET [6]: −0.49 | Hill, sIR, FITC-RP9, FP [11]: −0.64 | activity in the free fat cell (FFC) assay / at IR, in words [10]: potency similar to full-length RP9 monomer peptides | FFC ([10]; Table 6, free fat cell assay): + | FFC [10, 18]: + | FFC ([10]; free fat cell assay potency class, Table 7): +

CC(C)C[C@H](NC(=O)[C@H](CS)NC(=O)[C@H](CO)NC(=O)[C@H](Cc1ccc(O)cc1)NC(=O)[C@H](Cc1ccccc1)NC(=O)[C@@H](N)[C@@H](C)O)C(=O)N[C@@H](C)C(=O)N[C@@H](CO)C(=O)N[C@@H](CC(C)C)C(=O)N[C@@H](CC(C)C)C(=O)N[C@H](C(=O)NCC(=O)N[C@H](C(=O)N1CCC[C@H]1C(=O)N[C@@H](CCC(N)=O)C(=O)N1CCC[C@H]1C(=O)N[C@@H](CC(N)=O)C(=O)N[C@@H](CCCNC(=N)N)C(=O)NCC(=O)N1CCC[C@H]1C(=O)N[C@@H](Cc1c[nH]c2ccccc12)C(=O)N[C@@H](CCC(=O)O)C(=O)N[C@@H](CCCNC(=N)N)C(=O)N[C@@H](CS)C(=O)N[C@@H](CCCNC(=N)N)C(=O)O)[C@@H](C)O)[C@@H](C)O [RP6] (H-TFYSCLASLLTGTPQPNRGPWERCR-OH; N-terminus and C-terminus assumed)
effect on the rate of dissociation of b-20E2 from IGF-1R (IGF-1R [12]): dissociation rates of b-20E2 were similar | MiaPaCa Agonist (MiaPaCa cells [13]): No | MCF-7 Antagonist (MCF-7 cells [14]): + | MiaPaCa Antagonist (MiaPaCa cells [15]): No | agonist activity at IGF-1R, in words [1]: no agonist activity | FDC-P2 Antagonist [2]: + | antagonist activity at IGF-1R, in words [2]: acted as an antagonist | EC50 [2]: ~1 µM

GSLDESFYDWFERQLGKK [Peptide S371]
Hill, sIR-Fc, b-RP9, FRET [5]: −0.69 | Hill, sIR-Fc, b-S175, FRET [6]: −0.45 | Hill, sIR, FITC-RP9, FP [11]: −0.29 | potency / affinity at IR, in words ([8]; FP with FITC-RP9, summary of Table 22): slightly less potent | Hill, sIR-Fc, FITC-RP9, FP [8, 17]: −0.41 | MCF-7 Agonist (MCF-7 cells [16]): No | MiaPaCa Agonist (MiaPaCa cells [13]): No | MCF-7 Antagonist (MCF-7 cells [14]): No | MiaPaCa Antagonist (MiaPaCa cells [15]): No | binding to IGF-1R compared with IR, in words (IGF-1R [9]): lower binding ratios for IGF-1R over IR | agonist activity at IGF-1R, in words [1]: no agonist activity | Class ([1]; IGF-1R agonist or antagonist): N | FDC-P2 Antagonist [2]: + | EC50 [2]: ~7 µM | FFC [10, 19]: + | FFC ([10]; Table 5, free fat cell assay): + | FFC ([10]; Table 6, free fat cell assay): + | competition of Site 1 and Site 2 phage on IGF-1R (IGF-1R [3]): competed both Site 1 and Site 2 phage

KWLDQEWAWVQCEVYGRGCPSKK [Peptide D8]
% Binding (Insulin receptor): 33%
